From EP2181589A1, “Neurotoxic sterol glycosides” (Shaw, Christopher Ariel, priority 2008, dated 2010)
“Also recorded” adds a separate entry of the source. Marks after values point to notes of the source that are not given here.

Experiments:
[1] = tested on: Phosphorylated tau aggregates; assay: Tau immunohistochemistry; assay type: in vivo, CD-1 mice; parameters: key to Phosphorylated tau aggregates: - = not present; + = present; conditions: for Phosphorylated tau aggregates: SG-fed
Protocol: (§1) The synthetic SG was mixed with finely ground Purina Chow mouse pellets (Mouse Diet™, Purina) to create the experimental pellets with a SG content of 1000 µg per pellet. Dry materials were blended with a sterile silicon spatula. For every 5 g of standard feed, 2.5 mL of doubly-distilled water (dd)H2O was added and the dough was kneaded and round up into pellets. A single sterol glucoside containing pellet was placed in the feeding tray each morning before the addition of regular mouse chow (ad libitum). All experimental pellets were entirely consumed by the mice each day. Control mice were fed standard mouse chow pellets of identical weight with no additives. SG feeding was conducted daily for 15 weeks and mice were behaviorally monitored until sacrifice at 35 weeks (time point 1) or 52 weeks (time point 2).
(§2) Tissue-mounted slides were processed for fluorescence microscopy as follows: Sections were rinsed in coplin jars for 45 minutes at room temperature (RT) in three changes of PBS. Sections were then incubated at RT for 30 minutes in a blocking permeabilization solution made of 5% normal goat serum (NGS), 5% normal rabbit serum (NRS) or 5% BlokHen II (Aves Labs, Inc., Tigard, OR), 0.05% Triton X-100 and PBS. Subsequently, the blocking solution was tipped off and the slides were rinsed in PBS for 2 minutes. […]

[2] = tested on: CD-1 mice; assay: Rotarod test; assay type: in vivo; conditions: SG-fed vs control, duration of the study
Protocol: (§3) Five-month old male CD-1 mice (30.1-35.7 g, 7.5 cm - 8.8 cm) were purchased from Charles River (Wilmington, MA). Adult mice were chosen to mimic the mean age of onset of ALS-PDC (Kurland, 1988; Kurland et al., 1994). Thirty mice for the SG study were randomly divided into 2 groups (14 control and 16 experimental animals). All animals were housed singly in a virus-free barrier facility in a room maintained at 22°C under a 12 hour light/dark cycle. The mice were provided ad libitum access to food and water.
The synthetic SG was mixed with finely ground Purina Chow mouse pellets (Mouse Diet™, Purina) to create the experimental pellets with a SG content of 1000 µg per pellet. Dry materials were blended with a sterile silicon spatula. […] SG feeding was conducted daily for 15 weeks and mice were behaviorally monitored until sacrifice at 35 weeks (time point 1) or 52 weeks (time point 2).
Rotorod: The rotarod was used to evaluate motor function, coordination and balance (Jones and Roberts, 1968; Sango et al., 1995; Gerlai et al., 1996a; Sango et al., 1996; Chapillon et al., 1998; Carter et al., 1999; Crawley, 1999; Gerlai and Roder, 1996). The time that a mouse could remain walking on a horizontal (Norflus et al., 1998), rotating axle (3.6 cm diameter; 16 rpm) elevated above an area of padding without falling, clenching on, or jumping off the axle was measured (Crawley, 1999), see FIGURE 15. […]

[3] = tested on: CD-1 mice; assay: Wire hang test; assay type: in vivo
Protocol: as §3, §1
Wire hang: Neuromuscular strength was tested by the wire hang (or hanging wire) test (Wilson et al., 2003d; Wilson et al., 2004c; Wilson et al., 2005; Tabata et al., 2008). Both balance and grip strength are required for a mouse to keep its body suspended (Crawley, 2000). Mice were placed on a wire cage lid elevated 50 cm above a soft landing surface. The latency to fall off the wire (maximum 60 seconds) (Sango et al., 1996) was measured from the moment the wire apparatus was inverted (180°). Wire hang testing was conducted biweekly.

[4] = tested on: Phosphorylated Junser73; assay: Phosphorylated Jun ser73 immunofluorescence; assay type: in vivo, CD-1 mice; conditions: for Anti-pJun: SG-fed vs control
Protocol: as §1, §2

Question: What does the source list for `CCC(C=CC(C)C1CCC2C3CC=C4CC(OC5OC(CO)C(O)C(O)C5O)CCC4(C)C3CCC12C)C(C)C` (centres unmarked) [SG]?
Answer: Phosphorylated tau aggregates, animals affected ([1]; SG-fed group, time-point 2, 52 wk): 2/8; Phosphorylated Tau aggregates ([1]; SG-fed mice, none in non-treated mice): induced accumulation of phosphorylated tau; also recorded: observed; Phosphorylated tau aggregates ([1]; time-point 1, 35 wk): -; Phosphorylated tau aggregates ([1]; time-point 2, 52 wk): +; Rotarod performance [2]: trend of diminished performance on the rotarod but numbers did not reach statistical significance; also recorded: decrease in the time without fall; increase in the time between inversion of the apparatus and falling ([3]; SG fed mice, control group showed an increase): did not; Wirehang test performance ([3]; SG-fed animals, prior to 35 weeks): decline in performance; Wirehang ([3]; SG-fed vs control, time-point 2, 52 wk): Wirehang* (*p<0.05); Anti-pJun immunoreactive cells ([4]; SG-fed group over time, 35 to 52 wk): Anti-pJun immunoreactive cells (SG-fed group over time) (ns); Anti-pJun ([4]; time-point 1, 35 wk): Anti-pJun: +199%*; Anti-pJun ([4]; time-point 2, 52 wk): Anti-pJun (ns)
